One experiment deals with EGFR-Del19/T790M/C797S. Nature of the experiment: EGFR degradation HTRF assay in H1975-clone #28 cells. Particulars: H1975-clone #28 (Del19/T790M/C797S) cells, 16 h treatment; for DC50: IC50 (DC50), read-out: DC50(nM) H1975 # 28 DTC; for Dmax (%) H1975 # 28 DTC: maximum percentage of inhibition (degradation). It is filed as cell-based. In short, it runs like this: (§1)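 H1975 clones with endogenous EGFR knocked out, homozygously expressing lentiviral L858R/T790M/C797S (#25) or Del19/T790M/C797S (#28), treated 16 h at 37° C with 8 doses from 10 uM, 5-fold, in 0.2% DMSO. EGFR in lysates measured by HTRF overnight; DC50 from four-parameter fit of % degradation.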
(In TR-FRET formats the signal depends on donor and acceptor labels being close together.)

The next experiment has as its target T1, EGFR-L858R/T790M/C797S (Homo sapiens, UniProt P00533, C797S/L858R/T790M).
T1 construct: expressed in transfected cells; host or cells: H1975-clone #25 (lentiviral over-expression, endogenous EGFR knocked out)
Nature of the experiment: EGFR degradation HTRF assay in H1975-clone #25 cells. Particulars: 16 h treatment; for DC50: H1975-clone #25 (L858R/T790M/C797S) cells, IC50 (DC50), read-out: DC50(nM) H1975 # 25-LTC; for Dmax: NCI-H1975, H1975-clone #25 (L858R/T790M/C797S) cells, maximum percentage of inhibition (degradation), read-out: Dmax (%) H1975 # 25-LTC. It is filed as cell-based. In short, it runs like this: as §1

T1 sequence (P00533 25-1210 T790M/C797S/L858R): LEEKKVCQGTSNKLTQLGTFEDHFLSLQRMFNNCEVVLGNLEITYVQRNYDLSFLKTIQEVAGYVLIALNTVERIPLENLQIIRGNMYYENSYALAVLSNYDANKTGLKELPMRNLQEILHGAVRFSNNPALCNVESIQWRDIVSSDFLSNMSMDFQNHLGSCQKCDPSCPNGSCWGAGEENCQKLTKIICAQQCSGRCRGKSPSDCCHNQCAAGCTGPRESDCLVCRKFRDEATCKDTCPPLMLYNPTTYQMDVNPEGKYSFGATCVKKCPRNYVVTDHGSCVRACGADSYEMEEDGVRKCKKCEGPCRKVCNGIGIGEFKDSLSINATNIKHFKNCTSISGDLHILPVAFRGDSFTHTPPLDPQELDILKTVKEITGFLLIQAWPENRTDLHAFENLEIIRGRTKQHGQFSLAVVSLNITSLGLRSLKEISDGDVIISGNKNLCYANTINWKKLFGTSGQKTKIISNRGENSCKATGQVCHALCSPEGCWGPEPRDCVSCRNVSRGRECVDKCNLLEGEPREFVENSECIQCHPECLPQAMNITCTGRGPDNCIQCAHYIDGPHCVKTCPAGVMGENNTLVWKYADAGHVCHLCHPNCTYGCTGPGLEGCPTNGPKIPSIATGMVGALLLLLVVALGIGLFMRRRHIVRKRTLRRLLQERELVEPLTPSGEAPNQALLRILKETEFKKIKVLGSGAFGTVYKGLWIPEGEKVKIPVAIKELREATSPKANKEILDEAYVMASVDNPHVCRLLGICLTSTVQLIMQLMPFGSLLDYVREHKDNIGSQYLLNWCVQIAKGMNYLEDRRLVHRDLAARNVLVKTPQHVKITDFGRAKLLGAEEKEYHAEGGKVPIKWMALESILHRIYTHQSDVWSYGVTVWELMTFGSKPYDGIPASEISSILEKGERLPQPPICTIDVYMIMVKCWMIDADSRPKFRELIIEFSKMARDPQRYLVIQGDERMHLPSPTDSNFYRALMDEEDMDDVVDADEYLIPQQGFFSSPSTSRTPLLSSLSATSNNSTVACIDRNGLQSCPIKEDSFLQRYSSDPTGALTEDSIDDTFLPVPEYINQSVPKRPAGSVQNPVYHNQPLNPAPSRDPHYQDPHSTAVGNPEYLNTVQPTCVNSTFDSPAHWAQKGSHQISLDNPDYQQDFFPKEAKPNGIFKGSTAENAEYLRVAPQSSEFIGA

For `CCc1ccc2c(P(C)(C)=O)c(Nc3nc(Nc4cc(CC)c(N5CCC(N6CCN(C7CN(c8cccc9c8n(C)c(=O)n9C8CCC(=O)NC8=O)C7)CC6)CC5)cc4OC)ncc3Br)ccc2n1` (stereo not shown) [Example 21, 3-(4-(3-(4-(1-(4-((5-bromo-4-((5-(dimethylphosphoryl)-2-ethylquinolin-6-yl)amino)pyrimidin-2-yl)amino)-2-ethyl-5-methoxyphenyl)piperidin-4-yl)piperazin-1-yl)azetidin-1-yl)-3-methyl-2-oxo-2,3-dihydro-1H-benzol[d]imidazol-1-yl)piperidine-2,6-dione], in the experiment on EGFR-Del19/T790M/C797S, the DC50 came to 0.6 nM and the “Dmax (%) H1975 # 28 DTC” value is 77%. For the same compound, on EGFR-L858R/T790M/C797S, the half-maximal degradation concentration (DC50) turned out to be 1.8 nM and the maximal degradation (Dmax) came out at 78%.

Consider `CCc1cc(Nc2ncc(Br)c(Nc3ccc4nc(C)c(F)cc4c3P(C)(C)=O)n2)c(OC)cc1N1CCC2(CC1)CCN(C1CCN(c3cc(F)c([C@H]4CCC(=O)NC4=O)c(F)c3)CC1)CC2` [Example 1, (R)-3-(4-(4-(9-(4-((5-bromo-4-((5-(dimethylphosphoryl)-3-fluoro-2-methylquinolin-6-yl)amino)pyrimidin-2-yl)amino)-2-ethyl-5-methoxyphenyl)-3,9-diazaspiro[5.5]undecan-3-yl)piperidin-1-yl)-2,6-difluorophenyl)piperidine-2,6-dione], for which, in the experiment with EGFR-Del19/T790M/C797S, the DC50 is 2.2 nM and the “Dmax (%) H1975 # 28 DTC” value worked out at 89%. At EGFR-L858R/T790M/C797S, the half-maximal degradation concentration (DC50) is 3.4 nM and the Dmax came out at 92%.

Consider `CCc1ncc2c(P(C)(C)=O)c(Nc3nc(Nc4cc(CC)c(N5CCC(N6CC7(CCN(c8cc(F)c([C@H]9CCC(=O)NC9=O)c(F)c8)CC7)C6)CC5)cc4OC)ncc3Br)ccc2n1` (single isomer, unassigned) [Example 20], for which, in the experiment on EGFR-Del19/T790M/C797S, the DC50 was determined as 2.9 nM and the “Dmax (%) H1975 # 28 DTC” value was determined as 90%. Further, on EGFR-L858R/T790M/C797S, the DC50 is 1.4 nM and the Dmax stood at 92%.

As to `CCc1ccc2c(P(C)(C)=O)c(Nc3nc(Nc4cc(CC)c(N5CCC(N6CC7(CCN(c8cc(F)c([C@H]9CCC(=O)NC9=O)c(F)c8)CC7)C6)CC5)cc4OC)ncc3Br)ccc2n1` [Example 58, (R)-3-(4-(2-(1-(4-((5-bromo-4-((5-(dimethylphosphoryl)-2-ethylquinolin-6-yl)amino)pyrimidin-2-yl)amino)-2-ethyl-5-methoxyphenyl)piperidin-4-yl)-2,7-diazaspiro[3.5]nonan-7-yl)-2,6-difluorophenyl)piperidine-2,6-dione], in the experiment on EGFR-Del19/T790M/C797S, the DC50 is 1.6 nM and the “Dmax (%) H1975 # 28 DTC” value came to 91%. For the same compound, on EGFR-L858R/T790M/C797S, the 50% degradation concentration (DC50) stood at 3.1 nM and the maximal degradation (Dmax) was 91%.

For `CCc1cc(Nc2ncc(Br)c(Nc3ccc4nc(C)c(F)cc4c3P(C)(C)=O)n2)c(OC)cc1N1CCC2(CCN(CC3CCN(c4cc(F)c([C@H]5CCC(=O)NC5=O)c(F)c4)CC3)CC2)CC1` [Example 79, (R)-3-(4-(4-((9-(4-((5-bromo-4-((5-(dimethylphosphoryl)-3-fluoro-2-methylquinolin-6-yl)amino)pyrimidin-2-yl)amino)-2-ethyl-5-methoxyphenyl)-3,9-diazaspiro[5.5]undecan-3-yl)methyl)piperidin-1-yl)-2,6-difluorophenyl)piperidine-2,6-dione], in the experiment with EGFR-Del19/T790M/C797S, the 50% degradation concentration (DC50) came to 6.6 nM and the “Dmax (%) H1975 # 28 DTC” value stood at 90%. Besides, on EGFR-L858R/T790M/C797S, the DC50 came to 3.3 nM and the greatest degradation seen (Dmax) is 95%.

For the compound `CCc1ccc2c(P(C)(C)=O)c(Nc3nc(Nc4cc(CC)c(N5CCC(N6CC(N7CCC(c8cc(F)c([C@H]9CCC(=O)NC9=O)c(F)c8)CC7)C6)CC5)cc4OC)ncc3Br)ccc2n1` [Example 14, (R)-3-(4-(1-(1-(1-(4-((5-bromo-4-((5-(dimethylphosphoryl)-2-ethylquinolin-6-yl)amino)pyrimidin-2-yl)amino)-2-ethyl-5-methoxyphenyl)piperidin-4-yl)azetidin-3-yl)piperidin-4-yl)-2,6-difluorophenyl)piperidine-2,6-dione], in the experiment with EGFR-Del19/T790M/C797S, the DC50 is 1.9 nM and the “Dmax (%) H1975 # 28 DTC” value is 89%. At EGFR-L858R/T790M/C797S, the DC50 stood at 2.1 nM and the greatest degradation seen (Dmax) was 91%.

`CCc1cc(Nc2ncc(Br)c(Nc3ccc4nc(C)c(F)cc4c3P(C)(C)=O)n2)c(OC)cc1N1CCC(N2CCN(C3CN(c4cccc5c4n(C)c(=O)n5C4CCC(=O)NC4=O)C3)CC2)CC1` (stereo not shown) [Example 22, 3-(4-(3-(4-(1-(4-((5-bromo-4-((5-(dimethylphosphoryl)-3-fluoro-2-methylquinolin-6-yl)amino)pyrimidin-2-yl)amino)-2-ethyl-5-methoxyphenyl)piperidin-4-yl)piperazin-1-yl)azetidin-1-yl)-3-methyl-2-oxo-2,3-dihydro-1H-benzo[d]imidazol-1-yl)piperidine-2,6-dione]: in the experiment on EGFR-Del19/T790M/C797S, the DC50 was 0.6 nM and the “Dmax (%) H1975 # 28 DTC” value came out at 74%. Besides, on EGFR-L858R/T790M/C797S, the 50% degradation concentration (DC50) turned out to be 0.9 nM and the Dmax was 83%.

On to `CCc1cc(Nc2ncc(Br)c(Nc3ccc4nc(C)c(F)cc4c3P(C)(C)=O)n2)c(OC)cc1N1CCC(N2CC3(CCN(c4cc(F)c([C@H]5CCC(=O)NC5=O)c(F)c4)CC3)C2)CC1` (single isomer, unassigned) [Example 18], for which, in the experiment on EGFR-Del19/T790M/C797S, the DC50 came out at 1.7 nM and the “Dmax (%) H1975 # 28 DTC” value came to 91%. At EGFR-L858R/T790M/C797S, the DC50 was 1.7 nM and the Dmax was determined as 92%.

Consider `CCc1cc(Nc2ncc(Br)c(Nc3ccc4nc(C)c(F)cc4c3P(C)(C)=O)n2)c(OC)cc1N1CCC2(CCN(CCCc3cccc4c3n(C)c(=O)n4C3CCC(=O)NC3=O)CC2)CC1` (stereo not shown) [Example 28, 3-(4-(3-(9-(4-((5-bromo-4-((5-(dimethylphosphoryl)-3-fluoro-2-methylquinolin-6-yl)amino)pyrimidin-2-yl)amino)-2-ethyl-5-methoxyphenyl)-3,9-diazaspiro[5.5]undecan-3-yl)propyl)-3-methyl-2-oxo-2,3-dihydro-1H-benzo[d]imidazol-1-yl)piperidine-2,6-dione], for which, in the experiment on EGFR-Del19/T790M/C797S, the DC50 is 1 nM and the “Dmax (%) H1975 # 28 DTC” value is on record as 80%. Also, at EGFR-L858R/T790M/C797S, the DC50 amounted to 2.2 nM and the Dmax was determined as 87%.

For the compound `CCc1cc(Nc2ncc(Br)c(Nc3ccc4nc(C)c(F)cc4c3P(C)(C)=O)n2)c(OC)cc1N1CCC2(CCN(CC3CN(c4cccc5c4CN(C4CCC(=O)NC4=O)C5=O)C3)CC2)CC1` (stereo not shown) [Example 33, 3-(4-(3-((9-(4-((5-bromo-4-((5-(dimethylphosphoryl)-3-fluoro-2-methylquinolin-6-yl)amino)pyrimidin-2-yl)amino)-2-ethyl-5-methoxyphenyl)-3,9-diazaspiro[5.5]undecan-3-yl)methyl)azetidin-1-yl)-1-oxoisoindolin-2-yl)piperidine-2,6-dione], in the experiment on EGFR-Del19/T790M/C797S, the half-maximal degradation concentration (DC50) stood at 2.1 nM and the “Dmax (%) H1975 # 28 DTC” value came to 82%. At EGFR-L858R/T790M/C797S, the half-maximal degradation concentration (DC50) was found to be 1.5 nM and the maximal degradation (Dmax) came to 91%.

Regarding `CCOc1cc(N2CCC(N3CC4(CCN(c5cccc6c5n(C)c(=O)n6C5CCC(=O)NC5=O)CC4)C3)CC2)c(CC)cc1Nc1ncc(Cl)c(Nc2ccc3nc(C)c(F)cc3c2P(C)(C)=O)n1` (stereo not shown) [Example 32, 3-(4-(2-(1-(4-((5-chloro-4-((5-(dimethylphosphoryl)-3-fluoro-2-methylquinolin-6-yl)amino)pyrimidin-2-yl)amino)-5-ethoxy-2-ethylphenyl)piperidin-4-yl)-2,7-diazaspiro[3.5]nonan-7-yl)-3-methyl-2-oxo-2,3-dihydro-1H-benzol[d]imidazol-1-yl)piperidine-2,6-dione], in the experiment with EGFR-Del19/T790M/C797S, the DC50 was determined as 1.4 nM and the “Dmax (%) H1975 # 28 DTC” value was 77%. At EGFR-L858R/T790M/C797S, the DC50 stood at 1.3 nM and the Dmax came to 81%.

In the case of `CCc1cc(Nc2ncc(Br)c(Nc3ccc4nc(C)c(F)cc4c3P(C)(C)=O)n2)c(OC)cc1N1CCC2(CCN(C[C@@H]3CCN(c4ccc5c(c4)C(=O)N(C4CCC(=O)NC4=O)C5=O)C3)CC2)CC1` (stereo partly drawn) [Example 49, 5-((S)-3-((9-(4-((5-bromo-4-((5-(dimethylphosphoryl)-3-fluoro-2-methylquinolin-6-yl)amino)pyrimidin-2-yl)amino)-2-ethyl-5-methoxyphenyl)-3,9-diazaspiro[5.5]undecan-3-yl)methyl)pyrrolidin-1-yl)-2-(2,6-dioxopiperidin-3-yl)isoindoline-1,3-dione], in the experiment with EGFR-Del19/T790M/C797S, the DC50 turned out to be 3.8 nM and the “Dmax (%) H1975 # 28 DTC” value was 82%. In addition, on EGFR-L858R/T790M/C797S, the DC50 turned out to be 7.6 nM and the Dmax was found to be 89%.

Regarding `CCc1ncc2c(P(C)(C)=O)c(Nc3nc(Nc4cc(CC)c(N5CCC(N6CC7(CCN(c8cccc9c8n(C)c(=O)n9C8CCC(=O)NC8=O)CC7)C6)CC5)cc4OC)ncc3Br)ccc2n1` (stereo not shown) [Example 31, 3-(4-(2-(1-(4-((5-bromo-4-((5-(dimethylphosphoryl)-2-ethylquinazolin-6-yl)amino)pyrimidin-2-yl)amino)-2-ethyl-5-methoxyphenyl)piperidin-4-yl)-2,7-diazaspiro[3.5]nonan-7-yl)-3-methyl-2-oxo-2,3-dihydro-1H-benzol[d]imidazol-1-yl)piperidine-2,6-dione], in the experiment on EGFR-Del19/T790M/C797S, the half-maximal degradation concentration (DC50) turned out to be 0.8 nM and the “Dmax (%) H1975 # 28 DTC” value turned out to be 80%. At EGFR-L858R/T790M/C797S, the half-maximal degradation concentration (DC50) is 0.6 nM and the Dmax was 86%.

As a reminder, the DC50 is the midpoint of the concentration-degradation curve. As a reminder, the Dmax is the greatest extent of degradation seen.

The values are drawn from patent publication US20240368203A1, “DEGRADATION OF (EGFR) BY CONJUGATION OF EGFR INHIBITORS WITH E3 LIGASE LIGAND AND METHODS OF USE” (BeiGene, Ltd., priority 2022, published 2024).
